Measurements taken from patent US12091392B2, “Compounds, compositions and methods” (Denali Therapeutics Inc., priority 2019, dated 2024).

Test system: ATF4 Nano Luciferase reporter (ATF4 translation / ISR pathway activation)
Assay: ATF4 Nano Luciferase reporter integrated stress response (ISR) assay in H4 ATF4-NLuc (clone 17) cells
Format: cell-based
Conditions: Homo sapiens, 0.5 h, compounds added for 30 minutes at 37° C., then 50 μm sodium arsenite for 6 additional hours, luminescence readout
From the text: Cellular stress leads to activation of the integrated stress response pathway through one of four eukaryotic initiation factor 2α kinases and halts global translation, while allowing for the translation of select transcripts like ATF4 (activating transcription factor 4) that are important for the response to cellular stress. During normal conditions, small open reading frames (ORFs) in the 5′ UTR of ATF4 occupy the ribosome and prevent translation of the coding sequence of ATF4. During stress conditions however, the ribosome scans past these upstream ORFs and preferentially begins translation at the coding sequence of ATF4. In this way, the translation, and thus protein level of ATF4 is a readout of ISR pathway activation. Thus, a fusion of the uORFs and the beginning of the coding sequence of ATF to a common cellular reporter like nano-luciferase allows for a sensitive and high-throughput readout of ISR pathway activity.
Certain compounds provided herein were tested in the following assay. The ATF4 Nano Luciferase reporter was constructed by fusing the human full length 5′ untranslated region (5′-UTR) and a small portion of the coding sequence of the ATF4 gene upstream of the Nano Luciferase (NLuc) coding sequence lacking it's start codon. Specifically, nucleotides +1 through +364 (relative to the transcriptional start site) of ATF4 transcript variant 2 (NCBI NM_182810.2) flanked 5′ by EcoRI and 3′ by BamHI restriction enzyme sites were synthesized and cloned into the EcoRI/BamHI cloning sites of pLVX-EF1a-IRES-Puro lentivirus vector (Clontech). Lentiviral particles were produced with Lenti-X single shots (VSV-G, Clontech) according to the manufacturer's instructions and used to transduce a human H4 neuroglioma cell line (ATCC HTB-148). H4 cells were selected with 1.25 μg/mL Puromycin, and clonal cell lines generated by limiting dilution. This cell line was utilized to generate an integrated stress response (ISR) assay to evaluate the activity of ISR pathway inhibitors via luminescence readout. The H4 ATF4-NLuc (clone 17) cell line was plated at a density of 15,000 or 2,500 cells in 96-well or 384-well respectively in DMEM+10% fetal bovine serum. 24-hours later test compounds diluted in dimethyl sulfoxide (DMSO) were added for 30 minutes at 37° C., followed by ISR pathway activation with […] sodium arsenite aqueous solution for 6 additional hours. Nano Glo luciferase reagent (N1150, Promega) was added according to manufacturer instructions and the luminescence signal (corresponding to the level of ATF4 translation and thus ISR pathway activation) was read with a standard plate reader with luminescence detection capabilities. In Table 2, the activity of certain compounds disclosed herein as tested in the assay above is provided.

| SMILES | IC50 [nM] |
| --- | --- |
| O=C(COc1ccc(Cl)cc1)NC12CC(c3nnc(OCCOC(F)(F)F)o3)(C1)C2 [Example 1] | 62 |
| O=C(COc1ccc(C(F)(F)F)cc1)NC12CC(c3nnc(OCCOC(F)(F)F)o3)(C1)C2 [Example 2] | 4.9 |
| O=C(COc1ccc(Cl)cc1)NC12CC(c3nnc(OCCOCC(F)(F)F)o3)(C1)C2 [Example 3] | 16 |
| O=C(COc1ccc(C(F)(F)F)cc1)NC12CC(c3nnc(NCCOC(F)(F)F)o3)(C1)C2 [Example 4] | 36 |
| CN(CCOC(F)(F)F)c1nnc(C23CC(NC(=O)COc4ccc(C(F)(F)F)cc4)(C2)C3)o1 [Example 5] | 54 |
| O=C(COc1ccc(C(F)(F)F)cc1)NC12CC(c3nnc(OCCOCC(F)(F)F)o3)(C1)C2 [Example 6, N-(3-(5-(2-(2,2,2-trifluoroethoxy)ethoxy)-1,3,4-oxadiazol-2-yl)bicyclo[1.1.1]pentan-1-yl)-2-(4-(trifluoromethyl)phenoxy)acetamide] | 21 |
| O=C(COc1ccc(Br)cc1)NC12CC(c3nnc(OCCOCC(F)(F)F)o3)(C1)C2 [Example 7, 2-(4-bromophenoxy)-N-(3-(5-(2-(2,2,2-trifluoroethoxy)ethoxy)-1,3,4-oxadiazol-2-yl)bicyclo[1.1.1]pentan-1-yl)acetamide] | 16 |
| O=C(COc1ccc(Br)cc1)NC12CC(c3nnc(OCCOC(F)(F)F)o3)(C1)C2 [Example 8, 2-(4-bromophenoxy)-N-(3-(5-(2-(trifluoromethoxy)ethoxy)-1,3,4-oxadiazol-2-yl)bicyclo[1.1.1]pentan-1-yl)acetamide] | 23 |
| O=C(COc1ccc(C(F)(F)F)c(F)c1)NC12CC(c3nnc(OCCOCC(F)(F)F)o3)(C1)C2 [Example 9, 2-(3-fluoro-4-(trifluoromethyl)phenoxy)-N-(3-(5-(2-(2,2,2-trifluoroethoxy)ethoxy)-1,3,4-oxadiazol-2-yl)bicyclo[1.1.1]pentan-1-yl)acetamide] | 6.1 |
